In general, IC50 refers to the concentration needed to halve the response being measured.

The target in experiment [1] is c-Kit (Homo sapiens (Human), UniProt P10721). Put plainly: Inhibition of c-Kit kinase activity (HTRF KinEASE-TK). In kind it is biochemical. The note with it: biochemical, HTRF KinEASE-TK. Put shortly:
(§1)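 Phosphorylation of biotinylated TK peptide read by HTRF (665/620 nm ratio) after 120 min at rt, following 1 h enzyme–compound preincubation. ATP (2× mix): 20 μM CSF1R, 16 μM c-Kit, 40 μM PDGFRβ, 1 μM PDGFRα; MgCl2 10 mM except c-Kit 5 mM. 22-point 1:2 titration; four-parameter IC50.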
A general note: TR-FRET usually uses a lanthanide donor and a delayed reading to cut background.

The target in experiment [2] is PDGFRα (Homo sapiens (Human), UniProt P16234). As to the kind of experiment: Inhibition of PDGFRα kinase activity (HTRF KinEASE-TK). The note with it: biochemical, HTRF KinEASE-TK. The procedure, abridged:
as §1

Experiment [3] has as its target PDGFRβ (Homo sapiens (Human), UniProt P09619). As to the kind of experiment: Inhibition of PDGFRβ kinase activity (HTRF KinEASE-TK). The note with it: biochemical, HTRF KinEASE-TK. The procedure, abridged: as §1
Experiment [4] concerns the target CSF1R (Homo sapiens (Human), UniProt P07333). Put plainly: Inhibition of CSF1R kinase activity (HTRF KinEASE-TK). The note with it: biochemical, HTRF KinEASE-TK. The procedure, abridged:
as §1

Experiment [5] concerns the target FLT3 (Homo sapiens (Human), UniProt P36888). As to the kind of experiment: Inhibition of FLT3 kinase activity (HTRF KinEASE-TK). In kind it is biochemical. The note with it: biochemical, HTRF KinEASE-TK. The procedure, abridged:
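FLT3 tyrosine kinase activity was measured with the HTRF KinEASE-TK kit by following phosphorylation of a biotinylated TK peptide. After the 45 min reaction, 10 μL of detection mix was added: 0.2 μM (2×) Streptavidin-XL665 and 2 μM (2×) TK-Antibody-Cryptate in detection buffer. After 60 min, TR-FRET was read on an Envision as the 665 nm/620 nm emission ratio with 320 nm excitation.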

In experiment [6] the test system is Phospho-KIT (Y703) in M07e cells. As to the kind of experiment: Phospho-KIT (Y703) cellular assay in M07e cells. In kind it is cell-based. The note with it: M-07e; Phospho-KIT (Y703), M07e cells; read-out: M07e Cell IC50. The procedure, abridged: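 Serum-starved M07e cells preincubated 50 min at 37° C with 11-point half-log compound titration, then stimulated 10 min with SCF at 90.9 ng/mL final. Fixed, permeabilized cells stained for phospho-KIT Y703 and read by flow cytometry (live-gated geometric mean); IC50 by 4-parameter fit normalized to DMSO and positive control.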

Sequence of PDGFRβ (P09619 33-1106): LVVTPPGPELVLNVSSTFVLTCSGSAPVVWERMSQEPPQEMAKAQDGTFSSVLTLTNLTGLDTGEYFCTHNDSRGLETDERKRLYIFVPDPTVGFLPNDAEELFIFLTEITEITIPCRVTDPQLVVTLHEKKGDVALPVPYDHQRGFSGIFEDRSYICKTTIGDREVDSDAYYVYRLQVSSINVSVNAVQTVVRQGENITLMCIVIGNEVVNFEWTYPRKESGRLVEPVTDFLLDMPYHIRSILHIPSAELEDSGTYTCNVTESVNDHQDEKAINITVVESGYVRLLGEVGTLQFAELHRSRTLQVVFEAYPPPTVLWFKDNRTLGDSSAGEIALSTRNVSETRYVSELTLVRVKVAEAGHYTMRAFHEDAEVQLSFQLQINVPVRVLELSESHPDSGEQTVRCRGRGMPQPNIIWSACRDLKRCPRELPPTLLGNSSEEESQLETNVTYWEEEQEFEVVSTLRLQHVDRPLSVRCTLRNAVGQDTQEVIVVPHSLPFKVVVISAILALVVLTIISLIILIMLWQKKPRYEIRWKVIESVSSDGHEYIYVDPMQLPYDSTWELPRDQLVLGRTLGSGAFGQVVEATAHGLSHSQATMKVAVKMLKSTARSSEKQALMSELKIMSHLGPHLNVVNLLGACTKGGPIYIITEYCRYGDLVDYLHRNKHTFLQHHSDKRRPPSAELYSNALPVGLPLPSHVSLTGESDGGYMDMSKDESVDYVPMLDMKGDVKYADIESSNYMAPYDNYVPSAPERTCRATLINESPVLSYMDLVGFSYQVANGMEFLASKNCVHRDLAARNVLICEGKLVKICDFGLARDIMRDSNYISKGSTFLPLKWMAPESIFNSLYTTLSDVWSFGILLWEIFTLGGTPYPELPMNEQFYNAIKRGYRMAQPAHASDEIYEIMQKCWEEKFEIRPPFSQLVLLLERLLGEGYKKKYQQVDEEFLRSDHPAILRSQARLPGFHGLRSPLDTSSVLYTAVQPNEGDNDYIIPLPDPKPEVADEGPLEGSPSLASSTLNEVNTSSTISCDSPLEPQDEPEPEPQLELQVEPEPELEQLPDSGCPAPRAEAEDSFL
Sequence of PDGFRα (P16234 24-1089): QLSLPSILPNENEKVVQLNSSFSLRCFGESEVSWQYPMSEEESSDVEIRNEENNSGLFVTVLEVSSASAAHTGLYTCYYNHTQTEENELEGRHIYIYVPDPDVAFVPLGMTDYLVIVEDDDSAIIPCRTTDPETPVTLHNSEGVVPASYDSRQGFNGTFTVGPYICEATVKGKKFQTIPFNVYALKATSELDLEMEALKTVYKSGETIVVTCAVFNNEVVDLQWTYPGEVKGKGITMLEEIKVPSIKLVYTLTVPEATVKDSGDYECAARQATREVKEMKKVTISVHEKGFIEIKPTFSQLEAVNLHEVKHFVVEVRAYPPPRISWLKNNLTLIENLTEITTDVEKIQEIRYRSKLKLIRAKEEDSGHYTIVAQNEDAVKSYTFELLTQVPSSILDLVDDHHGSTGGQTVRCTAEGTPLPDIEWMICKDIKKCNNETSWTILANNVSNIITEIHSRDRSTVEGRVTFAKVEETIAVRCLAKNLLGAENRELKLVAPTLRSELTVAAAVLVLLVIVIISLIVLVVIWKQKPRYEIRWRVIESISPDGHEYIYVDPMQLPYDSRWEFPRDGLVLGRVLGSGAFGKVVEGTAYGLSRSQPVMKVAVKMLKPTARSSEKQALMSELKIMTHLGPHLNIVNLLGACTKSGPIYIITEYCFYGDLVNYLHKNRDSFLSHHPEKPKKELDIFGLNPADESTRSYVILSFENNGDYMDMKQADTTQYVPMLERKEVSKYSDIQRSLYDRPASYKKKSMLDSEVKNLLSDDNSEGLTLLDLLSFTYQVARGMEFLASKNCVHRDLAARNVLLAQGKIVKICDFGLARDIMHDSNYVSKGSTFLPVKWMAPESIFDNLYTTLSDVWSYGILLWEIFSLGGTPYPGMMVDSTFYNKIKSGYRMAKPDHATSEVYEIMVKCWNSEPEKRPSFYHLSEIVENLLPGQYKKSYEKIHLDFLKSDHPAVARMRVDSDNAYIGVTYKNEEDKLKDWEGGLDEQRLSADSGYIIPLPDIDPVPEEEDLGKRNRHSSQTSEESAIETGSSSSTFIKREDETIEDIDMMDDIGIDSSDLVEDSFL
Sequence of c-Kit (P10721 26-976): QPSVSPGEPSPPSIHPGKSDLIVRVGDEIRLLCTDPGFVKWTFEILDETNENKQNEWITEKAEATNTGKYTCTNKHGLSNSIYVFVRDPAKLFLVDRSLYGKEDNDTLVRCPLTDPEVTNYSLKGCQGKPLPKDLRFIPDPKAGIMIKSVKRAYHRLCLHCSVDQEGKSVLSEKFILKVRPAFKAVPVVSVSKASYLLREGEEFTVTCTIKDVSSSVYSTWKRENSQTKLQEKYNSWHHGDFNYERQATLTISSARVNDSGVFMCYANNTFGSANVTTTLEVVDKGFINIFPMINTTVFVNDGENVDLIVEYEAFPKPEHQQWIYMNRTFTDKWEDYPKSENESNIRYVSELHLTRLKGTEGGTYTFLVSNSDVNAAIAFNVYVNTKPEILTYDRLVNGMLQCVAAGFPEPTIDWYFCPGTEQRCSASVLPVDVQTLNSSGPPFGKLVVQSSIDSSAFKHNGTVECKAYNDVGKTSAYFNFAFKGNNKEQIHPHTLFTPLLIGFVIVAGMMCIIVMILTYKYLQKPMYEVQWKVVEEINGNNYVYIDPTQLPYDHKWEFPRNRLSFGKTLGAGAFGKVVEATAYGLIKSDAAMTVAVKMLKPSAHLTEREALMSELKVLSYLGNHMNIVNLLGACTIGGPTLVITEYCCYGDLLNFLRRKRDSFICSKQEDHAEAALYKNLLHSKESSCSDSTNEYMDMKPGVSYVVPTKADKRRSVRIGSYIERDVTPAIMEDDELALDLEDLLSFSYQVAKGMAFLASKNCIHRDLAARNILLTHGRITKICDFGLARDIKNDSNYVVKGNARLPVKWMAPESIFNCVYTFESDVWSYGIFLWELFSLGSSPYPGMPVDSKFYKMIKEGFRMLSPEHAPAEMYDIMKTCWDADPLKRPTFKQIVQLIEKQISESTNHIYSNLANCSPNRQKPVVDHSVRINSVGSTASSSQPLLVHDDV
Sequence of FLT3 (P36888 27-993): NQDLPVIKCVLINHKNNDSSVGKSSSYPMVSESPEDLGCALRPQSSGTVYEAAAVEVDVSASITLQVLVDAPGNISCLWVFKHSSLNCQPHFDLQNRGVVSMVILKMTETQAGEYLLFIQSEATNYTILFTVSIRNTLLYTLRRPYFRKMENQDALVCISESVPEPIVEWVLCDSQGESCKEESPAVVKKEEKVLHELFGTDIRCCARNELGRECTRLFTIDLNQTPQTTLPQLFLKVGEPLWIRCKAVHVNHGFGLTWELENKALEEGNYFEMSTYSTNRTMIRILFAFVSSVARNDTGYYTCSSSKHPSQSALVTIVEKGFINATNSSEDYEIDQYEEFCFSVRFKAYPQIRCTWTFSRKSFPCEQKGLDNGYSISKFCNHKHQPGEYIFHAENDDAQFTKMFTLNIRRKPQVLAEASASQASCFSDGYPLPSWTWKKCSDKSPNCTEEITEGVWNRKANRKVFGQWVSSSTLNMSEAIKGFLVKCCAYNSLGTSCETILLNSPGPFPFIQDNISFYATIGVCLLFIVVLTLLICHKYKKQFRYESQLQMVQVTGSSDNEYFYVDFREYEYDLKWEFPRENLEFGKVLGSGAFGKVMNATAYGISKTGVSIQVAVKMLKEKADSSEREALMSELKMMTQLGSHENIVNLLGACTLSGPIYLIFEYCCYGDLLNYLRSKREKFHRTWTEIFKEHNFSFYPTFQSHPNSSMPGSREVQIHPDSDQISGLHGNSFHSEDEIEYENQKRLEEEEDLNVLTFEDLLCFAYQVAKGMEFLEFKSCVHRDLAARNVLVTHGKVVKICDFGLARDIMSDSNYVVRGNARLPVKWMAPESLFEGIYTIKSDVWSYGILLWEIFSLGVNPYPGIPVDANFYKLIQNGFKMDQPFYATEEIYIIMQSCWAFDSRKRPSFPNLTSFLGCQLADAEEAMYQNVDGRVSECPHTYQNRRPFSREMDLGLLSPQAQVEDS
Sequence of CSF1R (P07333 20-972): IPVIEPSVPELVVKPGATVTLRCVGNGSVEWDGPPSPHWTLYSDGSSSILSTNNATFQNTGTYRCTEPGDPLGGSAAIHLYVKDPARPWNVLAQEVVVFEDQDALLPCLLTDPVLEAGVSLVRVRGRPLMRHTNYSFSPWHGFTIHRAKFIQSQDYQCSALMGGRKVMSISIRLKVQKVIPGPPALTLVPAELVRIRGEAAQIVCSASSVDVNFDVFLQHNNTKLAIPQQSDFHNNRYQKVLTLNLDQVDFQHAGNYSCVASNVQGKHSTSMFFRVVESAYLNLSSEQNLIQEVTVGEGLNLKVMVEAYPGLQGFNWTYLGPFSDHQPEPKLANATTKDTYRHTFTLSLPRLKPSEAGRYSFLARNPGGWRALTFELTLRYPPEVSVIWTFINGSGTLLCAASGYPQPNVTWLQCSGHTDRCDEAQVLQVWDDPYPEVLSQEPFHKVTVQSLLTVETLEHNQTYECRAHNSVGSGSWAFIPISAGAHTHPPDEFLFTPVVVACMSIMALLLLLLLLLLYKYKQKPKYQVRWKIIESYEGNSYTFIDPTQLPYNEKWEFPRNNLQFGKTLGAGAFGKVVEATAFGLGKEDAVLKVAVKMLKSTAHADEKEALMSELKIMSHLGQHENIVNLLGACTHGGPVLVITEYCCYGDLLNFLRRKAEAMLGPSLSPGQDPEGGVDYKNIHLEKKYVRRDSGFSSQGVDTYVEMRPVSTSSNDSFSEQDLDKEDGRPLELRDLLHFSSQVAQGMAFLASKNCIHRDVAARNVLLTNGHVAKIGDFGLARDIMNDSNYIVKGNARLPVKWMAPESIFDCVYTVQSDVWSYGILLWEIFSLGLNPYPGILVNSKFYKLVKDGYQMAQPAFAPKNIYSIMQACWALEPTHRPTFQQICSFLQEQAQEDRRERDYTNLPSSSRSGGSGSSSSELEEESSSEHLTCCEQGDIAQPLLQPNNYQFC

Turning to `CCn1ccc(NC(=O)c2cc(NC(=O)c3cnc(N)s3)c(C)cc2F)n1` [Example 179, 2-Amino-N-[5-[(1-ethylpyrazol-3-yl)carbamoyl]-4-fluoro-2-methylphenyl]-1,3-thiazole-5-carboxamide], the IC50 in experiment [1] was less than 100 nM; in experiment [2], greater than 1000 nM; in experiment [3] it was greater than 1000 nM; in experiment [4], greater than 1000 nM; in experiment [5], greater than 1000 nM; in experiment [6], less than 100 nM.
In the case of `Cc1cc(F)c(C(=O)Nc2ccn(C(F)F)n2)cc1NC(=O)c1cnc(N)s1` [Example 181, 2-Amino-N-[5-[[1-(difluoromethyl)pyrazol-3-yl]carbamoyl]-4-fluoro-2-methylphenyl]-1,3-thiazole-5-carboxamide], the IC50 in experiment [1] was less than 100 nM; in experiment [2], greater than 1000 nM; in experiment [3], greater than 1000 nM; in experiment [4], greater than 1000 nM; in experiment [5], greater than 1000 nM; in experiment [6], less than 100 nM.
As to `CO[C@H]1C[C@@H](n2ccc(NC(=O)c3cc(NC(=O)c4cnc(N)s4)c(C)cc3F)n2)C1` [Example 185, 2-Amino-N-[4-fluoro-5-[[1-(cis-3-methoxycyclobutyl)pyrazol-3-yl]carbamoyl]-2-methylphenyl]-1,3-thiazole-5-carboxamide], the half-inhibitory concentration (IC50) in experiment [1] was less than 100 nM; in experiment [2], greater than 1000 nM; in experiment [3], greater than 1000 nM; in experiment [4], greater than 1000 nM; in experiment [5], greater than 1000 nM; in experiment [6], less than 100 nM.
Regarding `CO[C@H]1C[C@H](n2ccc(NC(=O)c3cc(NC(=O)c4cnc(N)s4)c(C)cc3F)n2)C1` [Example 187, 2-Amino-N-[4-fluoro-5-[[1-(trans-3-methoxycyclobutyl)pyrazol-3-yl]carbamoyl]-2-methylphenyl]-1,3-thiazole-5-carboxamide], the IC50 in experiment [1] is less than 100 nM; in experiment [2], greater than 1000 nM; in experiment [3] it was greater than 1000 nM; in experiment [4] it was greater than 1000 nM; in experiment [5], greater than 1000 nM; in experiment [6], less than 100 nM.
With `COc1ccnc(NC(=O)c2cc(NC(=O)c3cnc(N)s3)c(C)cc2F)c1` [Example 189, 2-Amino-N-[4-fluoro-5-[(4-methoxypyridin-2-yl)carbamoyl]-2-methylphenyl]-1,3-thiazole-5-carboxamide], the IC50 in experiment [1] is less than 100 nM; in experiment [2], greater than 1000 nM; in experiment [3], 100 to 1000 nM; in experiment [4], 100 to 1000 nM; in experiment [5] it was greater than 1000 nM; in experiment [6], less than 100 nM.
As for `Cc1cc(F)c(C(=O)Nc2ccn([C@H]3CCOC3)n2)cc1NC(=O)c1cnc(N)s1` [Example 191, 2-Amino-N-[4-fluoro-2-methyl-5-[[1-[(3S)-oxolan-3-yl]pyrazol-3-yl]carbamoyl]phenyl]-1,3-thiazole-5-carboxamide], the IC50 in experiment [1] was less than 100 nM; in experiment [2], greater than 1000 nM; in experiment [3], greater than 1000 nM; in experiment [4] it was greater than 1000 nM; in experiment [5], greater than 1000 nM; in experiment [6], less than 100 nM.
Turning to `Cc1cc(F)c(C(=O)NCC2(F)CCC2)cc1NC(=O)c1cnc(N)s1` [Example 192, 2-amino-N-[4-fluoro-5-[(1-fluorocyclobutyl)methylcarbamoyl]-2-methylphenyl]-1,3-thiazole-5-carboxamide], the 50% inhibitory concentration (IC50) in experiment [1] was less than 100 nM; in experiment [2], greater than 1000 nM; in experiment [3], 100 to 1000 nM; in experiment [4], greater than 1000 nM; in experiment [5] it was greater than 1000 nM; in experiment [6], less than 100 nM.
`Cc1cc(F)c(C(=O)N[C@H]2CCOC2)cc1NC(=O)c1cnc(N)s1` [Example 194, 2-Amino-N-[4-fluoro-2-methyl-5-[[(3S)-oxolan-3-yl]carbamoyl]phenyl]-1,3-thiazole-5-carboxamide]: the IC50 in experiment [1] is less than 100 nM; in experiment [2] it was greater than 1000 nM; in experiment [3] it was greater than 1000 nM; in experiment [4] it was greater than 1000 nM; in experiment [5] it was greater than 1000 nM; in experiment [6], 100 to 1000 nM.
As for `Cc1cc(F)c(C(=O)Nc2ccc(COC(C)C)cn2)cc1NC(=O)c1cnc(N)s1` [Example 195, 2-Amino-N-[4-fluoro-2-methyl-5-[[5-(propan-2-yloxymethyl)pyridin-2-yl]carbamoyl]phenyl]-1,3-thiazole-5-carboxamide], the IC50 in experiment [1] was less than 100 nM; in experiment [2], greater than 1000 nM; in experiment [3] it was greater than 1000 nM; in experiment [4] it was greater than 1000 nM; in experiment [5], 100 to 1000 nM; in experiment [6] it was less than 100 nM.
With `CCOCc1ccc(NC(=O)c2cc(NC(=O)c3cnc(N)s3)c(C)cc2F)nc1` [Example 196, 2-Amino-N-[5-[[5-(ethoxymethyl)pyridin-2-yl]carbamoyl]-4-fluoro-2-methylphenyl]-1,3-thiazole-5-carboxamide], the IC50 in experiment [1] is less than 100 nM; in experiment [2] it was greater than 1000 nM; in experiment [3] it was greater than 1000 nM; in experiment [4], greater than 1000 nM; in experiment [5], greater than 1000 nM; in experiment [6] it was less than 100 nM.
With `COCc1ccc(NC(=O)c2cc(NC(=O)c3cnc(N)s3)c(Cl)cc2F)nc1` [Example 202, 2-Amino-N-[2-chloro-4-fluoro-5-[[5-(methoxymethyl)pyridin-2-yl]carbamoyl]phenyl]-1,3-thiazole-5-carboxamide], the concentration for half-maximal inhibition (IC50) in experiment [1] is less than 100 nM; in experiment [2] it was greater than 1000 nM; in experiment [3], greater than 1000 nM; in experiment [4] it was greater than 1000 nM; in experiment [5], greater than 1000 nM; in experiment [6], less than 100 nM.
For the compound `Nc1ncc(C(=O)Nc2cc(C(=O)Nc3ncc(C4CC4)cn3)c(F)cc2Cl)s1` [Example 203, 2-Amino-N-[2-chloro-5-[(5-cyclopropylpyrimidin-2-yl)carbamoyl]-4-fluorophenyl]-1,3-thiazole-5-carboxamide], the IC50 is less than 100 nM in experiment [1]; greater than 1000 nM in experiment [2]; 100 to 1000 nM in experiment [3]; 100 to 1000 nM in experiment [4]; greater than 1000 nM in experiment [5]; less than 100 nM in experiment [6].
Consider `Nc1ncc(C(=O)Nc2cc(C(=O)Nc3cnc(C4CC4)nc3)c(F)cc2Cl)s1` [Example 204, 2-Amino-N-[2-chloro-5-[(2-cyclopropylpyrimidin-5-yl)carbamoyl]-4-fluorophenyl]-1,3-thiazole-5-carboxamide], for which the IC50 in experiment [1] is less than 100 nM; in experiment [2], 100 to 1000 nM; in experiment [3] it was 100 to 1000 nM; in experiment [4] it was 100 to 1000 nM; in experiment [5], greater than 1000 nM; in experiment [6], less than 100 nM.
For `Nc1ncc(C(=O)Nc2cc(C(=O)Nc3cnc(C4CC4)cn3)c(F)cc2Cl)s1` [Example 205, 2-Amino-N-[2-chloro-5-[(5-cyclopropylpyrazin-2-yl)carbamoyl]-4-fluorophenyl]-1,3-thiazole-5-carboxamide], the IC50 was less than 100 nM in experiment [1]; 100 to 1000 nM in experiment [2]; less than 100 nM in experiment [3]; less than 100 nM in experiment [4]; greater than 1000 nM in experiment [5]; less than 100 nM in experiment [6].
For the compound `Nc1ncc(C(=O)Nc2cc(C(=O)Nc3ccc(C(F)F)cn3)c(F)cc2Cl)s1` [Example 206, 2-Amino-N-[2-chloro-5-[[5-(difluoromethyl)pyridin-2-yl]carbamoyl]-4-fluorophenyl]-1,3-thiazole-5-carboxamide], the IC50 in experiment [1] was less than 100 nM; in experiment [2], greater than 1000 nM; in experiment [3] it was 100 to 1000 nM; in experiment [4], 100 to 1000 nM; in experiment [5] it was greater than 1000 nM; in experiment [6], less than 100 nM.

These data come from patent publication US20250145606A1 (Arcus Biosciences, Inc., priority 2023, published 2025).
